Test results reported in publication PMC6095626, “Screening of the Pathogen Box for inhibitors with dual efficacy against Giardia lamblia and Cryptosporidium parvum” (PLoS Neglected Tropical Diseases, 2018).

Columns and labels:
[1] = test system: C. parvum (UGA1 Nluc expressing strain in HCT-8 cells); assay: microbe, parasite or virus in culture; format: cell-based, Cryptosporidium parvum; conditions: initial Pathogen Box screen, single concentration 10 µM, inhibition compared to DMSO wells
Procedure, shortened: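 Parasite growth quantified by NanoLuc luminescence from lysed infected HCT-8 cells, with EC50 fitted from dose curves. Compounds, single-dose 10 μM or serially diluted, were added to confluent 48 h monolayers before infection with bleached UGA1 Nluc oocysts.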

[2] = test system: G. lamblia trophozoites (luciferase expressing, WBC6); assay: microbe, parasite or virus in culture; format: cell-based, Giardia lamblia; conditions: for Giardia (16 uM) Mean % inhibition: initial Pathogen Box screen, single concentration 16 µM, inhibition compared to DMSO wells
Procedure, shortened: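 Incubation ran 24 h at 37 °C under anaerobic conditions, with compound added in equal volume to trophozoites (WBC6, luciferase-expressing, 250,000 cells/mL). Bioluminescence was the read-out, cross-checked by MOXI Z counts on a duplicate plate; metronidazole served as control (1:2 dilutions from 40 μM).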

| SMILES | Crypto (10 uM) Mean % inhibition [1] | Giardia (16 uM) Mean % inhibition [2] | G. lamblia EC50 ([2]; luciferase expressing G. lamblia trophozoites, 24 hours, D-luciferin bioluminescence read-out) |
| --- | --- | --- | --- |
| c1ccc(C[C@@H]2CN(c3nccc(Oc4ccc(-n5ccnc5)cc4)n3)CCN2)cc1 [MMV687749] | 58% | 24% |  |
| COc1ccc(-c2cnc3ccc(N4CCCC4)nn23)cc1OC [MMV023985] | 93% | X* (Mean or standard deviation are negative but not significantly different from the control to be a growth promoter) |  |
| Cc1ccc(S(=O)(=O)n2cc(-c3ccnc(N)c3)c3cc(Br)cnc32)cc1 [MMV024114] | 86% | 78% | not potent |
| Nc1nc2cc(-c3cncc(Oc4ccc(F)cc4)c3)ccc2[nH]1 [MMV687248] | 72% | 22% |  |
| CC(C)(C)OC(=O)N1CCC(Cn2nc(-c3cnc4ccccc4c3)c3c(N)ncnc32)CC1 [MMV688364] | X* (Mean or standard deviation are negative but not significantly different from the control to be a growth promoter) | 56% |  |
| Nc1nc(N)c2c3c(sc2n1)CN(Cc1ccccc1)CC3 [MMV688345] | X* (Mean or standard deviation are negative but not significantly different from the control to be a growth promoter) | 16% |  |
| CC1(O)CC(c2nc(-c3ccc4ccc(-c5ccccc5)nc4c3)c3c(N)nccn23)C1 (stereo not shown) [MMV676605] | X* (Mean or standard deviation are negative but not significantly different from the control to be a growth promoter) | 15% |  |
| c1cc(C2=NCCN2)cc(-c2cc(-c3ccc(C4=NCCN4)cc3)no2)c1 [MMV688361] | 44% | 38% |  |
| COc1ccc(-c2onc(C(F)(F)F)c2-c2ccc(Cl)cc2)c(O)c1 [MMV688766] | X* (Mean or standard deviation are negative but not significantly different from the control to be a growth promoter) | 29% |  |
| Cc1nnc(NCc2cccc(Cl)c2)c2ccccc12 [MMV676555] | X* (Mean or standard deviation are negative but not significantly different from the control to be a growth promoter) | X* (Mean or standard deviation are negative but not significantly different from the control to be a growth promoter) |  |
| CC1=Nc2ccc(Cl)cc2C(O)(c2ccc(C)cc2)N1CCN1CCCCC1 (stereo not shown) [MMV688279] | 43% | 65% |  |
| CC(C)=CCC/C(C)=C\CNCCNC1C2CC3CC(C2)CC1C3 (stereo not shown) [MMV687273] | 35% | 89% |  |
| Cn1ccnc1CNCCS(=O)(=O)c1cccc(Nc2ccc(-c3cccc(F)c3)cn2)c1 [MMV688466] | 43% | 28% |  |
| COc1nc2ccc(Br)cc2cc1[C@@H](c1ccccc1)[C@@](O)(CCN(C)C)c1cccc2ccccc12 [MMV689758] | 68% | 62% |  |
| c1ccc(Oc2ccc(-c3cncc(-c4ccc5[nH]ccc5c4)n3)cc2)cc1 [MMV688178] | 59% | X* (Mean or standard deviation are negative but not significantly different from the control to be a growth promoter) |  |
| N#Cc1nc(-c2ccccc2F)oc1NCCc1ccccc1 [MMV676384] | 40% | 21% |  |
| CNc1nnc(Sc2cnn(-c3ccccc3)c(=O)c2Cl)s1 [MMV688763] | 49% | X* (Mean or standard deviation are negative but not significantly different from the control to be a growth promoter) |  |
| Cc1cc(NC(=O)c2ccc(Oc3ccc(Cl)cc3O)o2)no1 [MMV688955] | 50% | 26% |  |
| Cn1c(=O)c2c(S(C)(=O)=O)snc2n(C)c1=O [MMV687251] | 76% | 7.44% |  |
| COc1ccccc1C(C)NCC(=O)Nc1cc(C(F)(F)F)ccc1Cl (stereo not shown) [MMV020321] | 83% | X* (Mean or standard deviation are negative but not significantly different from the control to be a growth promoter) |  |
| Cc1nn(C)c(C)c1NS(=O)(=O)c1c(Cl)cc(-c2ccnc(N3CCNCC3)c2)cc1Cl [MMV688180] | 66% | 21% |  |
| COc1cncc(-c2cncc(N3CCN(c4ccncc4)CC3)n2)c1 [MMV085071] | 47% | 19% |  |
| C[C@H]1COC2(CCN(c3nc(=O)c4cc(C(F)(F)F)cc([N+](=O)[O-])c4s3)CC2)O1 [MMV676603] | X* (Mean or standard deviation are negative but not significantly different from the control to be a growth promoter) | 77% |  |

| SMILES | Crypto (10 uM) Mean % inhibition [1] | Giardia (16 uM) Mean % inhibition [2] | G. lamblia EC50 ([2]; luciferase expressing G. lamblia trophozoites, 24 hours, D-luciferin bioluminescence read-out) |
| --- | --- | --- | --- |
| COCC(C)NC(=O)CSc1ncnc2sc(-c3ccccc3)cc12 (stereo not shown) [MMV676536] | X* (Mean or standard deviation are negative but not significantly different from the control to be a growth promoter) | 15% |  |
| Cc1noc(C)c1C(=O)N1CCCC(c2[nH]c3c(C)cccc3c2-c2ccncc2)C1 (stereo not shown) [MMV020623] | 43% | X* (Mean or standard deviation are negative but not significantly different from the control to be a growth promoter) |  |
| Cc1ccc2nc(C)c(-c3ccn(Cc4ccccc4)n3)n2c1 [MMV688939] | 73% | X* (Mean or standard deviation are negative but not significantly different from the control to be a growth promoter) |  |
| O=C(NC1=NCCS1)c1sc2cc(F)ccc2c1Cl [MMV676584] | 69% | 89% |  |
| O=C(NCCN1CCCC1)c1cc(NCCCCN2CCC(F)(F)CC2)nc2ccc(Cl)cc12 [MMV667494] | X* (Mean or standard deviation are negative but not significantly different from the control to be a growth promoter) | 82% |  |
| Nc1ncc(-c2ccc(C(F)(F)F)nc2)cc1-c1ccc(C(F)(F)F)nc1 [MMV668727] | 82% | 0.605% |  |
| Cc1nn(C(=O)Nc2cccc(C(F)(F)F)c2)c(C)c1Sc1ncccn1 [MMV688552] | X* (Mean or standard deviation are negative but not significantly different from the control to be a growth promoter) | X* (Mean or standard deviation are negative but not significantly different from the control to be a growth promoter) |  |
| Cc1ccc(-c2cc(C(=O)Nc3cccnc3)c3cc(Br)ccc3n2)cc1 [MMV016838] | 42% | 63% |  |
| COc1ccc(CCN2CCC(NCc3cccc(N(C)C)c3)CC2)cc1 [MMV011511] | X* (Mean or standard deviation are negative but not significantly different from the control to be a growth promoter) | 73% |  |
| O=C(NC1CC1)c1ccc(N2CCOc3ccc(Cl)cc32)s1 [MMV020537] | 55% | 4.66% |  |
| CCc1nc2ccccc2n1CC(O)COc1cc(C)ccc1Cl (stereo not shown) [MMV676449] | 37% | 46% |  |
| COc1cc(Br)cc2cc(C(=O)Nc3cccc(C(F)(F)F)c3)c(=O)oc12 [MMV688891] | 51% | 7.41% |  |
| CC(=O)N1CCc2cc3nc(C)cc(C)c3cc21 [MMV054312] | 59% | 45% |  |
| C[C@H](C(N)=O)N1CCCC[C@H]1c1ccc(OCc2cccc(F)c2)cc1 [MMV676269] | 7% | 69% |  |
| Cc1ccc2[nH]c3c(NCCN(C)C)ncnc3c2c1 [MMV006372] | 64% | 21% |  |
| CC(C)(C)C(=O)N(CCCCCCN1C[C@H](O)[C@@H](O)[C@H](O)[C@H]1CO)C1CCCCCC1 [MMV688543] | X* (Mean or standard deviation are negative but not significantly different from the control to be a growth promoter) | X* (Mean or standard deviation are negative but not significantly different from the control to be a growth promoter) |  |
| Cn1ncc2c(N3CCOCC3)nc(NCCc3c[nH]c4ccccc34)nc21 [MMV676382] | 83% | 60% |  |
| O=C1Nc2ccc(Br)cc2C12NCCc1c2[nH]c2ccccc12 (stereo not shown) [MMV006239] | 53% | X* (Mean or standard deviation are negative but not significantly different from the control to be a growth promoter) |  |
| N#Cc1nc(-c2ccccc2)oc1S(=O)(=O)c1ccc(Cl)cc1 [MMV676412] | 77% | 49% |  |
| Cc1ccc2[nH]c(C3CCCNC3)c(-c3ccncc3)c2c1 (stereo not shown) [MMV024311] | 56% | 22% |  |
| CNC1C(OC2C(OC3C(O)C(O)C(N=C(N)N)C(O)C3N=C(N)N)OC(C)C2(O)C=O)OC(CO)C(O)C1O (stereo not shown) [MMV688994] | 47% | X* (Mean or standard deviation are negative but not significantly different from the control to be a growth promoter) |  |
| CO[C@@H]1CN(c2ccc(C#CC3(O)CN4CCC3CC4)c(Cc3ccccc3)n2)C[C@H]1O (stereo partly shown) [MMV688415] | X* (Mean or standard deviation are negative but not significantly different from the control to be a growth promoter) | X* (Mean or standard deviation are negative but not significantly different from the control to be a growth promoter) |  |
